Assay results reported in US20220118121A1, “PROSTATE SPECIFIC MEMBRANE ANTIGEN (PSMA) LIGANDS WITH IMPROVED TISSUE SPECIFICITY” (Ruprecht-Karls-Universität Heidelberg, priority 2019, published 2022).
Like-named read-outs stand apart in the source and are kept apart here. Where a SMILES comes first, the peptide text is derived from it. [ ]: non-standard residue; d: D form. The star is where a group is joined. DOTA = O=C(O)CN1CCN(CC(=O)O)CCN(CC(=O)*)CCN(CC(=O)O)CC1; EuK = O=C(O)CC[C@H](NC(=O)N[C@@H](CCCCN*)C(=O)O)C(=O)O; 2Nal = N[C@@H](Cc1ccc2ccccc2c1)C(=O)O; Trx = NC[C@H]1CC[C@H](C(=O)O)CC1

Assays:
PSMA = biological target: T1, PSMA (Homo sapiens, UniProt Q04609); experiment: competitive cell binding assay vs 68Ga-labeled PSMA-10 on LNCaP cells
T1 construct: host or cells: LNCaP cells
Description: (§1) PSMA^+ LNCaP cells (ATCC CRL-1740) were cultured in RPMI medium. Cells were grown at 37° C. in humidified air with 5% C02 and were harvested using trypsin-ethylenediaminetetraacetic acid.
(§2) The competitive cell binding assay and internalization experiments were performed according to Eder M et al. (2012), Bioconjug Chem 23(4):688.
Briefly, the cells (10^5 per well) were incubated with a 0.8 nM solution of ^68Ga-labeled radioligand [Glu-urea-Lys(Ahx)]2-HBED-CC (PSMA-10, precursor ordered from ABX, Radeberg, Germany) in the presence of 12 different concentrations of analyte (0-5000 nM, 100 μL/well). After incubation, the mixture was removed and the wells were washed 3 times with PBS using a multiscreen vacuum manifold (Millipore, Billerica, Mass.). Cell-bound radioactivity was measured using a gamma counter (Packard Cobra II, GMI, Minnesota, USA). The 50% inhibitory concentration (IC50) values were calculated by fitting the data using a nonlinear regression algorithm (GraphPad Software).

PSMA+ LNCaP cells = experiment: cell surface binding and internalization of radiolabeled compounds; format: cell-based; details: for Specific Cell Surface Binding / Specific Internalization / Cell Surface binding / Internalization: 68Ga-labeled; for Specific cell surface bound / Specific internalized: 177Lu-labeled, LNCaP cells
Description: as §1, §2
For internalization experiments, 10^5 cells per well were seeded in poly-L-lysine coated 24-well cell culture plates 24 h before incubation. After washing, the cells were incubated with 30 nM of the ^68Ga- or ^177Lu-radiolabeled compound for 45 min at 37° C. and at 4° C., respectively. Cellular uptake was terminated by washing 3 times with 1 mL of ice-cold PBS. To remove surface-bound radioactivity, cells were incubated twice with 0.5 mL glycine-HCl in PBS (50 mM, pH=2.8) for 5 min. The cells were washed with 1 mL of ice-cold PBS and lysed using 0.3 N NaOH (0.5 mL). The surface-bound and the internalized fractions were measured in a gamma counter. The cell uptake was calculated as percent of the initially added radioactivity bound to 10^5 cells [% ID/10^5 cells].

[1] = LNCaP cells, 0.8 nM 68Ga-PSMA-10 radioligand, read-out: Specific Binding Affinity IC50

T1 sequence (Q04609 whole entry): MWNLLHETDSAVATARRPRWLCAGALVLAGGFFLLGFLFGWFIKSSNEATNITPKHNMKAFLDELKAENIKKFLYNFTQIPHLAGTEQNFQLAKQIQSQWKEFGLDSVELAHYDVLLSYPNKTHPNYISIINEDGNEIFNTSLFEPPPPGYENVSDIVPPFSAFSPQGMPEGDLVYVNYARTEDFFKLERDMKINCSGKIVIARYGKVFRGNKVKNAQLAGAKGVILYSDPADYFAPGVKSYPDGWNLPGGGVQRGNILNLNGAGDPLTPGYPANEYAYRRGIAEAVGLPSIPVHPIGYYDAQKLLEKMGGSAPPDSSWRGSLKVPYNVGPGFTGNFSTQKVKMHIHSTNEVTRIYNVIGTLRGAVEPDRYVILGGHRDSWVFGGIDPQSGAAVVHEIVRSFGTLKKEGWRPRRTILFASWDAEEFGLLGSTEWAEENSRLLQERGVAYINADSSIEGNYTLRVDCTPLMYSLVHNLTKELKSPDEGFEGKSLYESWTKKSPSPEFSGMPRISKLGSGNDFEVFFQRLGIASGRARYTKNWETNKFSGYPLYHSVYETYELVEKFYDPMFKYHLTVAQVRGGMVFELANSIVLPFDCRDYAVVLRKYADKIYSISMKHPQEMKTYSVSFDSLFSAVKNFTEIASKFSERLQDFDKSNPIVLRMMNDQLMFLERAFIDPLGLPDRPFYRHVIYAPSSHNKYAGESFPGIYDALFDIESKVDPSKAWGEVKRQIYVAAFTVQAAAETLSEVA

Row | Structure (SMILES) | IC50 (PSMA; [1]) | Specific Cell Surface Binding (PSMA+ LNCaP cells) | Specific Internalization (PSMA+ LNCaP cells) | Cell Surface binding (PSMA+ LNCaP cells; blocked) | Internalization (PSMA+ LNCaP cells; blocked) | Cell Surface binding (PSMA+ LNCaP cells; not blocked) | Internalization (PSMA+ LNCaP cells; not blocked) | Specific cell surface bound (PSMA+ LNCaP cells) | Specific internalized (PSMA+ LNCaP cells) | IC50 (PSMA)
1 | O=C(O)CC[C@H](NC(=O)N[C@@H](CCCCNC(=O)[C@H](Cc1ccc2ccccc2c1)NC(=O)[C@H](Cc1c[nH]cn1)NC(=O)[C@H](Cc1c[nH]cn1)NC(=O)[C@H](Cc1c[nH]cn1)NC(=O)[C@H]1CC[C@H](CNC(=O)CN2CCN(CC(=O)O)CCN(CC(=O)O)CCN(CC(=O)O)CC2)CC1)C(=O)O)C(=O)O [PS10, DOTA-CHx-(H)3-2NaI-PSMA] ({DOTA-Trx}-HHH[2Nal]-EuK) | 54 ± 20.9 nM | 0.55 ± 0.08 % ID/10^5 cells | 0.44 ± 0.08 % ID/10^5 cells | 0.027 ± 0.006 % ID/10^5 cells | 0.083 ± 0.006 % ID/10^5 cells | 0.580 ± 0.046 % ID/10^5 cells | 0.523 ± 0.078 % ID/10^5 cells |  |  | 
2 | O=C(O)CC[C@H](NC(=O)N[C@@H](CCCCNC(=O)[C@H](Cc1c[nH]cn1)NC(=O)[C@H](CCC(=O)O)NC(=O)[C@H](Cc1c[nH]cn1)NC(=O)[C@H](CCC(=O)O)NC(=O)[C@H](Cc1c[nH]cn1)NC(=O)[C@H](CCC(=O)O)NC(=O)[C@H](Cc1ccc2ccccc2c1)NC(=O)[C@H]1CC[C@H](CNC(=O)CN2CCN(CC(=O)O)CCN(CC(=O)O)CCN(CC(=O)O)CC2)CC1)C(=O)O)C(=O)O [PS-1, DOTA-CHx-2NaI-(EH)3-PSMA] ({DOTA-Trx}-[2Nal]EHEHEH-EuK) | 56 ± 7.7 nM | 1.09 ± 0.17 % ID/10^5 cells | 0.46 ± 0.11 % ID/10^5 cells | 0.069 ± 0.013 % ID/10^5 cells | 0.212 ± 0.037 % ID/10^5 cells | 1.162 ± 0.183 % ID/10^5 cells | 0.676 ± 0.155 % ID/10^5 cells | 6.84 ± 0.06 % ID/10^5 cells | 4.32 ± 0.03 % ID/10^5 cells | 
3 | O=C(O)CC[C@H](NC(=O)N[C@@H](CCCCNC(=O)[C@H](Cc1ccc2ccccc2c1)NC(=O)[C@H]1CC[C@H](CNC(=O)[C@H](Cc2c[nH]cn2)NC(=O)[C@H](CCC(=O)O)NC(=O)[C@H](Cc2c[nH]cn2)NC(=O)[C@H](CCC(=O)O)NC(=O)[C@H](Cc2c[nH]cn2)NC(=O)[C@H](CCC(=O)O)NC(=O)CN2CCN(CC(=O)O)CCN(CC(=O)O)CCN(CC(=O)O)CC2)CC1)C(=O)O)C(=O)O [PS-2, DOTA-(EH)3-CHx-2NaI-PSMA] ({DOTA}-EHEHEH[Trx][2Nal]-EuK) | 37 ± 11.4 nM | 1.27 ± 0.15 % ID/10^5 cells | 0.61 ± 0.15 % ID/10^5 cells | 0.060 ± 0.017 % ID/10^5 cells | 0.187 ± 0.032 % ID/10^5 cells | 1.333 ± 0.127 % ID/10^5 cells | 0.797 ± 0.122 % ID/10^5 cells | 9.55 ± 1.61 % ID/10^5 cells | 6.00 ± 0.71 % ID/10^5 cells | 
4 | O=C(O)CC[C@H](NC(=O)N[C@@H](CCCCNC(=O)[C@H](Cc1ccc2ccccc2c1)NC(=O)[C@H](Cc1c[nH]cn1)NC(=O)[C@H](CCC(=O)O)NC(=O)[C@H](Cc1c[nH]cn1)NC(=O)[C@H](CCC(=O)O)NC(=O)[C@H](Cc1c[nH]cn1)NC(=O)[C@H](CCC(=O)O)NC(=O)[C@H]1CC[C@H](CNC(=O)CN2CCN(CC(=O)O)CCN(CC(=O)O)CCN(CC(=O)O)CC2)CC1)C(=O)O)C(=O)O [PS-3, DOTA-Chx-(EH)3-2NaI-PSMA] ({DOTA-Trx}-EHEHEH[2Nal]-EuK) | 43.1 ± 9.63 nM | 0.84 ± 0.03 % ID/10^5 cells | 0.24 ± 0.02 % ID/10^5 cells | 0.183 ± 0.025 % ID/10^5 cells | 0.317 ± 0.025 % ID/10^5 cells | 1.023 ± 0.140 % ID/10^5 cells | 0.557 ± 0.042 % ID/10^5 cells |  |  | 
5 | O=C(O)CC[C@H](NC(=O)N[C@@H](CCCCNC(=O)[C@H](Cc1ccc2ccccc2c1)NC(=O)[C@H]1CC[C@H](CNC(=O)[C@H](Cc2c[nH]cn2)NC(=O)[C@H](CCC(=O)O)NC(=O)[C@H](Cc2c[nH]cn2)NC(=O)[C@H](CCC(=O)O)NC(=O)[C@H](Cc2c[nH]cn2)NC(=O)[C@H](CCC(=O)O)NC(=O)[C@H](Cc2c[nH]cn2)NC(=O)[C@H](CCC(=O)O)NC(=O)CN2CCN(CC(=O)O)CCN(CC(=O)O)CCN(CC(=O)O)CC2)CC1)C(=O)O)C(=O)O [PS-4, DOTA-(EH)4-CHx-2NaI-PSMA] ({DOTA}-EHEHEHEH[Trx][2Nal]-EuK) | 46.7 ± 37.3 nM | 1.33 ± 0.09 % ID/10^5 cells | 0.52 ± 0.04 % ID/10^5 cells | 0.083 ± 0.029 % ID/10^5 cells | 0.151 ± 0.048 % ID/10^5 cells | 1.420 ± 0.113 % ID/10^5 cells | 0.676 ± 0.070 % ID/10^5 cells |  |  | 
6 | O=C(O)CC[C@H](NC(=O)N[C@@H](CCCCNC(=O)[C@H](Cc1ccc2ccccc2c1)NC(=O)[C@H]1CC[C@H](CNC(=O)[C@H](CCC(=O)O)NC(=O)[C@H](Cc2c[nH]cn2)NC(=O)[C@H](CCC(=O)O)NC(=O)[C@H](Cc2c[nH]cn2)NC(=O)[C@H](CCC(=O)O)NC(=O)[C@H](Cc2c[nH]cn2)NC(=O)CN2CCN(CC(=O)O)CCN(CC(=O)O)CCN(CC(=O)O)CC2)CC1)C(=O)O)C(=O)O [PS-4.2, DOTA-(HE)3-CHx-2NaI-PSMA] ({DOTA}-HEHEHE[Trx][2Nal]-EuK) | 27.9 ± 6.93 nM | 1.35 ± 0.28 % ID/10^5 cells | 0.71 ± 0.28 % ID/10^5 cells | 0.080 ± 0.010 % ID/10^5 cells | 0.113 ± 0.023 % ID/10^5 cells | 1.437 ± 0.138 % ID/10^5 cells | 0.676 ± 0.070 % ID/10^5 cells |  |  | 
7 | O=C(O)CC[C@H](NC(=O)N[C@@H](CCCCNC(=O)[C@H](Cc1ccc2ccccc2c1)NC(=O)[C@H]1CC[C@H](CNC(=O)[C@H](CCC(=O)O)NC(=O)[C@H](CCC(=O)O)NC(=O)[C@H](CCC(=O)O)NC(=O)CN2CCN(CC(=O)O)CCN(CC(=O)O)CCN(CC(=O)O)CC2)CC1)C(=O)O)C(=O)O [PS-5, DOTA-(E)3-CHx-2NaI-PSMA] ({DOTA}-EEE[Trx][2Nal]-EuK) |  | 0.94 ± 0.13 % ID/10^5 cells | 0.63 ± 0.28 % ID/10^5 cells | 0.055 ± 0.013 % ID/10^5 cells | 0.095 ± 0.026 % ID/10^5 cells | 1.003 ± 0.127 % ID/10^5 cells | 0.725 ± 0.269 % ID/10^5 cells |  |  | 10.4 ± 2.94 nM
8 | O=C(O)CC[C@H](NC(=O)N[C@@H](CCCCNC(=O)[C@H](CCC(=O)O)NC(=O)[C@H](CCC(=O)O)NC(=O)[C@H](CCC(=O)O)NC(=O)[C@H](Cc1ccc2ccccc2c1)NC(=O)[C@H]1CC[C@H](CNC(=O)CN2CCN(CC(=O)O)CCN(CC(=O)O)CCN(CC(=O)O)CC2)CC1)C(=O)O)C(=O)O [PS-6, DOTA-CHx-2NaI-(E)3-PSMA] ({DOTA-Trx}-[2Nal]EEE-EuK) | 28.6 ± 8.42 nM | 0.71 ± 0.12 % ID/10^5 cells | 0.45 ± 0.12 % ID/10^5 cells | 0.050 ± 0.020 % ID/10^5 cells | 0.156 ± 0.023 % ID/10^5 cells | 0.767 ± 0.156 % ID/10^5 cells | 0.607 ± 0.136 % ID/10^5 cells |  |  | 
9 | O=C(O)CC[C@H](NC(=O)N[C@@H](CCCCNC(=O)[C@H](Cc1ccc2ccccc2c1)NC(=O)[C@H]1CC[C@H](CNC(=O)[C@H](Cc2c[nH]cn2)NC(=O)[C@H](Cc2c[nH]cn2)NC(=O)[C@H](Cc2c[nH]cn2)NC(=O)CN2CCN(CC(=O)O)CCN(CC(=O)O)CCN(CC(=O)O)CC2)CC1)C(=O)O)C(=O)O [PS-7, DOTA-(H)3-CHx-2NaI-PSMA] ({DOTA}-HHH[Trx][2Nal]-EuK) | 22.7 ± 6.47 nM | 0.69 ± 0.11 % ID/10^5 cells | 0.47 ± 0.11 % ID/10^5 cells | 0.123 ± 0.015 % ID/10^5 cells | 0.207 ± 0.021 % ID/10^5 cells | 0.817 ± 0.047 % ID/10^5 cells | 0.673 ± 0.093 % ID/10^5 cells |  |  | 
10 | O=C(O)CC[C@H](NC(=O)N[C@@H](CCCCNC(=O)[C@H](Cc1c[nH]cn1)NC(=O)[C@H](Cc1c[nH]cn1)NC(=O)[C@H](Cc1c[nH]cn1)NC(=O)[C@H](Cc1ccc2ccccc2c1)NC(=O)[C@H]1CC[C@H](CNC(=O)CN2CCN(CC(=O)O)CCN(CC(=O)O)CCN(CC(=O)O)CC2)CC1)C(=O)O)C(=O)O [PS-8, DOTA-CHx-2NaI-(H)3-PSMA] ({DOTA-Trx}-[2Nal]HHH-EuK) | 78.6 ± 44.1 nM | 0.90 ± 0.03 % ID/10^5 cells | 0.51 ± 0.05 % ID/10^5 cells | 0.038 ± 0.010 % ID/10^5 cells | 0.093 ± 0.033 % ID/10^5 cells | 0.945 ± 0.030 % ID/10^5 cells | 0.600 ± 0.066 % ID/10^5 cells |  |  | 
